Laboratory results: patent publication US5847108A, “Clathrate of isoflavone derivatives and edible composition comprising the same” (Fujicco Co., Ltd., priority 1996, dated 1998)

Legend:
[1] = test system: postmenopausal osteoporosis model (femur); assay: Bone density of femur in postmenopausal osteoporosis model (ovariectomized rats, calcium deficient diet); assay type: in vivo, Sprague-Dawley rats; conditions: ovariectomized rat femur, oral, 28 days; Means ± S.D.; a: vs nonclathrated, b: vs control (1%)
Method: (§1) To obtain postmenopausal osteoporosis model, eighty-day-old Sprague-Dawley rats, on day 10 after ovariectomy, was grown for 28 days feeding with calcium deficient diet (Ca: 0.004%, P: 0.3%), with one group consisting of 5 to 6 rats. During the time the rats were growing, an isoflavone derivative, or a β-cyclodextrin clathrate thereof (see Table 3), was administered orally in the form of a solution or a suspension in 1% aqueous hydroxypropylcellulose. On the day before the final administration, urine was collected for 24 hours. Blood was collected from postcava at 4 hours after the final administration, and a femur was removed. The collected blood was separated to obtain serum according to a standard method. In order to determine the amounts of isoflavone derivatives in the obtained samples of urine and serum, the samples were subjected to the reactions for 2 hours at 37° C. through adding thereto 50 Units/ml of sulfatase (EC3.1.6.1; SIGMA CHEMICAL Co. LTD.) in 1 ml of acetate buffer (0.1M, pH 4.5). Then 1 ml of acetate buffer (0.1M, pH 4.5) containing β-glucuronidase (200 Units/ml, EC 3.2.1.31, WAKO JYUNYAKU KOGYO KABUSIKI KAISYA) was added to the mixture and incubated for 2 hours at 37° C. After treating it with Sep-Pak (Waters), the incubated solution was analyzed using HPLC as described in the above clathrate formation test. Concentration of each isoflavone derivatives in the sample was determined based on the values for daidzein, genistein, or glycitein as a standard. Bone density of femur was calculated based on wet weight and volume measured by pycnometer.

[2] = Serum (blood) level of isoflavone derivatives after oral administration to ovariectomized rats; set-up: species or system Sprague-Dawley rats; conditions: in vivo
Method: as §1

[3] = in words, dietary intake; cited from earlier work
[4] = 24 h urinary excretion of isoflavone derivatives after oral administration to ovariectomized rats; set-up: species or system Sprague-Dawley rats; conditions: in vivo, rat, 24 h urine on day before final administration, Means ± S.D., a: significantly different from nonclathrated (1%), read-out: Urinary Excretion Rate
Method: as §1, with “Then 1 ml of acetate buffer (0.1M, pH 4.5) containing β-glucuronidase (200 Units/ml, EC 3.2.1.31, WAKO JYUNYAKU KOGYO KABUSIKI KAISYA) was added to the mixture and incubated for 2 hours at 37° C.” left out

SMILES	concentration at 4 h ([2]; rat) [ng/mL]	Bone Density [1] [g/mL]	urinary excretion in Japanese female relative to female in Boston or Helsinki [3]	dose excreted at 24 h [4] [%]	concentration at 4 h ([2]; heading: Blood Level, rat serum, oral, 4 hours after the final administration, Means ± S.D., a: significantly different from nonclathrated (1%)) [ng/mL]
O=C(O)CC(=O)OC[C@H]1O[C@@H](Oc2ccc3c(=O)c(-c4ccc(O)cc4)coc3c2)[C@H](O)[C@@H](O)[C@@H]1O [6"-O-malonyldaidzin]	850 ± 50	1.488 ± 0.012			
O=c1c(-c2ccc(O)cc2)coc2cc(O[C@@H]3O[C@H](CO)[C@@H](O)[C@H](O)[C@H]3O)ccc12 [daidzin]		1.496 ± 0.015	ten times greater	9.3 ± 0.7	840 ± 30
CC(=O)OC[C@H]1O[C@@H](Oc2cc(O)c3c(=O)c(-c4ccc(O)cc4)coc3c2)[C@H](O)[C@@H](O)[C@@H]1O [6"-O-acetylgenistin]	780 ± 70	1.494 ± 0.028			
O=c1c(-c2ccc(O)cc2)coc2cc(O)cc(O)c12 [genistein]	680 ± 30	1.492 ± 0.012			
O=C(O)CC(=O)OC[C@H]1O[C@@H](Oc2cc(O)c3c(=O)c(-c4ccc(O)cc4)coc3c2)[C@H](O)[C@@H](O)[C@@H]1O [6"-O-malonylgenistin]	840 ± 40	1.494 ± 0.013			
O=c1c(-c2ccc(O)cc2)coc2cc(O)ccc12 [daidzein]	650 ± 40	1.489 ± 0.013			
COc1cc2c(=O)c(-c3ccc(O)cc3)coc2cc1O[C@@H]1O[C@H](COC(C)=O)[C@@H](O)[C@H](O)[C@H]1O [6"-O-acetylglycitin]	720 ± 60	1.489 ± 0.012			
CC(=O)OC[C@H]1O[C@@H](Oc2ccc3c(=O)c(-c4ccc(O)cc4)coc3c2)[C@H](O)[C@@H](O)[C@@H]1O [6"-O-acetyldaidzin]	740 ± 50	1.492 ± 0.014			
COc1cc2c(=O)c(-c3ccc(O)cc3)coc2cc1O[C@@H]1O[C@H](COC(=O)CC(=O)O)[C@@H](O)[C@H](O)[C@H]1O [6"-O-malonylglycitin]	780 ± 50	1.489 ± 0.012			

Continued, in another order:

concentration at 4 h ([2]; rat) [ng/mL]	SMILES	Bone Density [1] [g/mL]	urinary excretion in Japanese female relative to female in Boston or Helsinki [3]	dose excreted at 24 h [4] [%]	concentration at 4 h ([2]; heading: Blood Level, rat serum, oral, 4 hours after the final administration, Means ± S.D., a: significantly different from nonclathrated (1%)) [ng/mL]
820 ± 50	O=C(O)CCC(=O)OC[C@H]1O[C@@H](Oc2cc(O)c3c(=O)c(-c4ccc(O)cc4)coc3c2)[C@H](O)[C@@H](O)[C@@H]1O [6"-O-succinylgenistin]	1.486 ± 0.028			
750 ± 60	COc1cc2c(=O)c(-c3ccc(O)cc3)coc2cc1O[C@@H]1O[C@H](CO)[C@@H](O)[C@H](O)[C@H]1O [glycitin]	1.494 ± 0.015			
860 ± 30	O=C(O)CCC(=O)OC[C@H]1O[C@@H](Oc2ccc3c(=O)c(-c4ccc(O)cc4)coc3c2)[C@H](O)[C@@H](O)[C@@H]1O [6"-O-succinyldaidzin]	1.490 ± 0.030			
790 ± 30	COc1cc2c(=O)c(-c3ccc(O)cc3)coc2cc1O[C@@H]1O[C@H](COC(=O)CCC(=O)O)[C@@H](O)[C@H](O)[C@H]1O [6"-O-succinylglycitin]	1.477 ± 0.032			
780 ± 40	O=c1c(-c2ccc(O)cc2)coc2cc(O[C@@H]3O[C@H](CO)[C@@H](O)[C@H](O)[C@H]3O)cc(O)c12 [genistin]	1.502 ± 0.007			
630 ± 50	COc1cc2c(=O)c(-c3ccc(O)cc3)coc2cc1O [glycitein]	1.493 ± 0.013			
